{"source": "paper PMC1892040", "about": "(PLoS Medicine, 2007)", "key": {"[1]": {"system": "adult Schistosoma mansoni worms", "experiment": "Inhibitor studies on cultured adult worms (unpairing, mortality)", "type": "cell-based", "method": "[…] Control worms were treated with equal amounts of carrier. Worms were subsequently observed for unpairing, motility, and mortality, and were collected at the indicated time intervals for analysis. Worms were homogenized by sonication in PBS and homogenates were assayed for TrxR and GR activities as described above. […] Each assay was done in triplicate and each experiment was done three times."}, "TGR": {"target": "TGR (Schistosoma mansoni, UniProt Q962Y6)", "experiment": "TrxR and GR activities of TGR in homogenates of treated worms", "type": "cell-based", "details": "after 1 h of treatment with 10 μM AF, compared to control worms", "method": "AF was dissolved in DMSO and added to freshly perfused worms in DMEM to 10 μM. Control worms were treated with equal amounts of carrier. Worms were subsequently observed for unpairing, motility, and mortality, and were collected at the indicated time intervals for analysis. Worms were homogenized by sonication in PBS and homogenates were assayed for TrxR and GR activities as described above. […] Each assay was done in triplicate and each experiment was done three times."}, "[2]": {"system": "lactate dehydrogenase (LDH)", "experiment": "LDH activity in homogenates of treated worms", "type": "cell-based, Schistosoma mansoni", "details": "10 μM AF"}, "[3]": {"system": "schistosomula and juvenile liver stage parasites", "experiment": "Survival of larval and juvenile parasites in culture with AF", "type": "cell-based, Schistosoma mansoni", "details": "AF at concentrations as low as 5 μM", "excerpt": "Percutaneous infection of outbred mice (NIH Swiss or Swiss-Webster) with S. mansoni cercariae (NMRI strain) obtained from infected Biomphalaria glabrata snails, perfusion of adult worms (6–7 wk) and juvenile worms (23 d) and preparation of schistosomula from cercariae were as described. This study was approved by the Institutional Animal Care and Use Committee of Illinois State University (08–2002; Department of Health and Human Services animal welfare assurance number A3762–01).\nFigure 6 Survival of Schistosomula, Adult Worms, and Myeloma Cells in the Presence of Auranofin or Potassium Antimonyl Tartrate (A) Cultured schistosomula treated with 0 μM AF (dashed line); AF 0.5 μM (♦); 1 μM (*); 2 μM (x); 5 μM (▴); 10 μM. (B) Survival of adult Schistosoma mansoni worms at 24 h (dashed line), myeloma cells at 24 h; and myeloma cells at 5 d (♦) at given concentrations of AF. (C) As in (B) in the presence of given concentrations of PAT. Each treatment was done in triplicate and each experiment was done three times. Error bars show the standard deviation of the three replicate experiments."}, "myeloma cell line SP2/0": {"system": "myeloma cell line SP2/0", "experiment": "Cytotoxicity assay (sulforhodamine B)", "type": "cell-based", "details": "for 5 d", "method": "Cytotoxicity assays were performed using sulforhodamine B to determine cellular protein content as described. Briefly, myeloma cell line SP2/0 was cultured in 96-well microtiter plates containing 0.2 ml of RPMI-1640 per well at a cell density of 1,000 per well at 37 °C in 5% CO2. Cells were treated with drug concentrations (or drug carrier alone) and exposure times as indicated. After treatment, cells were fixed with 10% TCA at 4 °C for 1 h. Fixed cells were rinsed to remove fixative and then stained in 0.4% (w/v) sulforhodamine B (Sigma) in 1% acetic acid for 30 min. After washing with 1% acetic acid and dye extraction in 10 mM Tris (pH 10.5), plates were read at A564nm. The A564nm of drug-treated cells was compared to carrier-only-treated cells. The treatments were done in triplicate and the experiments repeated three times."}, "[4]": {"experiment": "Tolerability of AF dosage in mice", "type": "in vivo", "details": "6 mg/kg twice daily for 9 d", "method": "Mice (14-wk-old females; C57BL/6 in experiment 1, NIH-Swiss in experiment 2) infected with 60 S. mansoni cercariae were injected intraperitoneally with 6 mg/kg of AF twice daily for 9 d, beginning 7 wk post infection. Infected control mice were injected with equal amounts of carrier. Mice were perfused 1 wk after the final dose of AF and worm burdens were determined."}, "S. mansoni TGR [5]": {"target": "T1, S. mansoni TGR (Schistosoma mansoni, UniProt Q962Y6)", "T1 sequence (Q962Y6 1-598)": "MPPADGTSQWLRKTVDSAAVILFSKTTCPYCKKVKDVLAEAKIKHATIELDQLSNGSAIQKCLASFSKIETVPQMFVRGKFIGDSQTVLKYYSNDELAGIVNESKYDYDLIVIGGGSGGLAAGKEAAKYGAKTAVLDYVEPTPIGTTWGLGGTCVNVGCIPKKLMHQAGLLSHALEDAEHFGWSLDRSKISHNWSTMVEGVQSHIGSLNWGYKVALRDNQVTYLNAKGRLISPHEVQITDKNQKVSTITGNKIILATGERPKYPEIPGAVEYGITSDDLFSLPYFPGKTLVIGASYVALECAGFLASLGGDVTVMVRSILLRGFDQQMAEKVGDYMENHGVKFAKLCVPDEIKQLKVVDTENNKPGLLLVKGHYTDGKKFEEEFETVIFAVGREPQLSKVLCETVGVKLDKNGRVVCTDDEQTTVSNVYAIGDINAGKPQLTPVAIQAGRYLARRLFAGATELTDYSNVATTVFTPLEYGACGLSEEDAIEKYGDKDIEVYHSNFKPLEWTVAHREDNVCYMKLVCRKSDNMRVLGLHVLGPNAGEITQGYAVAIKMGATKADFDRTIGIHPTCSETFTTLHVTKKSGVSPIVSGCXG", "procedure": "(§1) Assays were performed at 25 °C in 0.1 M potassium phosphate (pH 7.4), 10 mM EDTA using 100 μM NADPH unless otherwise stated.\n(§2) Initial inhibitor screens were conducted in 200 μl volumes in 96 well plates with 50 μM inhibitor, 100 μM NADPH, and 5 nM TGR in 0.1 M potassium phosphate (pH 7.4), 10 mM EDTA with a preincubation step of 15 min. […] All assays were done in triplicate."}, "S. mansoni TGR [6]": {"target": "T1, S. mansoni TGR", "type": "biochemical", "set-up": "The entire TGR ORF plus the SECIS element was subcloned into pET-24a; made in house; host or cells: Escherichia coli BL21(DE3) with pSUABC", "details": "read-out: IC50 S. mansoni TGR, GSSG (GR activity); 100 μM GSSG, 15 min preincubation with 100 μM NADPH", "procedure": "as §1, §2"}}}
{"smiles": "CC(=O)OC[C@H]1O[C@@H]([S-])[C@H](OC(C)=O)[C@@H](OC(C)=O)[C@@H]1OC(C)=O.CCP(CC)CC.[Au+]", "note": "[AF, auranofin]", "values": [{"measurement": "Time to adult worm death", "setting": "[1]; 5 μM AF", "value": 24, "unit": "h"}, {"measurement": "Mortality of adult worms after 6 h", "setting": "[1]; 10 μM AF", "value": 83, "unit": "%"}, {"measurement": "Mortality of adult worms after 9 h", "setting": "[1]; 10 μM AF", "value": 100, "unit": "%"}, {"measurement": "Time to unpairing of male and female worms", "setting": "[1]; 10 μM AF", "value": 1, "unit": "h"}, {"measurement": "Concentration able to kill parasites rapidly in culture", "setting": "[1]; physiological concentration, abstract", "value": 5, "unit": "µM"}, {"measurement": "Inhibition of GR activity of TGR in worm homogenates", "setting": "TGR", "value": "~100", "unit": "%"}, {"measurement": "Inhibition of TrxR activity of TGR in worm homogenates", "setting": "TGR", "value": "~100", "unit": "%"}, {"measurement": "LDH activity in worm homogenates", "setting": "[2]", "value": "no significant deviation from controls"}, {"measurement": "Time to kill larval, skin stage and juvenile liver stage parasites", "setting": "[3]", "value": "less than 10 h"}, {"measurement": "Concentration tolerated by mammalian cell line", "setting": "myeloma cell line SP2/0", "value": 100, "unit": "µM"}, {"measurement": "Tolerability in mice", "setting": "[4]", "value": "well tolerated"}, {"measurement": "activity", "setting": "S. mansoni TGR [5]", "value": 0, "unit": "%"}, {"measurement": "IC50", "setting": "S. mansoni TGR [6]", "value": 9, "unit": "nM"}]}
